Source: patent US20170362283A1, “NISIN-BASED COMPOUNDS AND USE THEREOF IN THE TREATMENT OF BACTERIAL INFECTIONS” (UNIVERSITEIT UTRECHT HOLDING B.V., priority 2015, published 2017)
Values after ≈ are worked out from the molar mass of the structure shown.

Experiments:
Settings in all cases: duplicate experiments
[1] = tested on: VRE 155; format: cell-based
Method: (§1) Determining the MIC value is a standard technique well known to the skilled person, in particular the MIC value can be measured using method M07-A9 (CLSI standard, January 2012, Vol. 32, No. 2, “Methods for Dilution Antimicrobial Susceptibility Tests for Bacteria That Grow Aerobically”).
(§2) Different microorganisms (from glycerol stock) were plated out on blood agar and incubated at 37° C. for 24 hours. A colony was selected and 2×5 mL of TSB was inoculated. The samples and a sterile control were cultured for 16-20 hours at 37° C. Comparative compound B is nisin acting as a control. Comparative compound C is vancomycin, also acting as a control. Comparative compounds A, D and E are also control compounds not part of the present invention.
(§3) The overnight cultures were diluted to 0.5×10^6 CFU in TSB. 50 μL of the bacterial solution was added to each well and the plates were sealed with an adhesive membrane and incubated at 37° C. for 16 hours. The next day, the plates were visually inspected for bacterial growth.

[2] = tested on: MRSA USA300; format: cell-based, Staphylococcus aureus
Method: as §1, §2, §3

[3] = tested on: S. aureus
Method: as §1
as §2, with “Comparative compound C is vancomycin, also acting as a control.” left out
as §3

[4] = tested on: E. coli
Method: as §1
as §2, with “Comparative compound C is vancomycin, also acting as a control.” left out
as §3

[5] = tested on: B. subtilis
Method: as §1
as §2, with “Comparative compound C is vancomycin, also acting as a control.” left out
as §3

C=C1NC(=O)[C@H]([C@@H](C)CC)NC(=O)[C@H](NC(=O)C(=CC)NC(=O)[C@@H](N)[C@@H](C)CC)CSC[C@@H](C(=O)N[C@H]2C(=O)N3CCC[C@H]3C(=O)NCC(=O)N[C@H](C(=O)N[C@@H](CCCCN)C(=O)NCCCCCCCCCCC)CS[C@H]2C)NC(=O)[C@H](CC(C)C)NC1=O [(7)]
MIC values VRE 155 [1]: 4 µg/mL (≈ 3.07 µM) | MIC values MRSA USA300 [2]: 16 µg/mL (≈ 12.3 µM) | MIC values S. aureus [3]: 8 µg/mL (≈ 6.14 µM) | MIC values E. coli [4]: >64 µg/mL | MIC values B. subtilis [5]: 4 µg/mL (≈ 3.07 µM)

C=C1NC(=O)[C@H]([C@@H](C)CC)NC(=O)[C@H](NC(=O)C(=CC)NC(=O)[C@@H](N)[C@@H](C)CC)CSC[C@@H](C(=O)N[C@H]2C(=O)N3CCC[C@H]3C(=O)NCC(=O)N[C@H](C(=O)N[C@@H](CCCCN)C(=O)N[C@@H](Cc3ccc(O)cc3)C(=O)NCCCCCCCCCC)CS[C@H]2C)NC(=O)[C@H](CC(C)C)NC1=O [(18)]
MIC values VRE 155 [1]: 2 µg/mL (≈ 1.38 µM) | MIC values MRSA USA300 [2]: 8 µg/mL (≈ 5.51 µM) | MIC values S. aureus [3]: 4 to 8 µg/mL | MIC values E. coli [4]: >64 µg/mL | MIC values B. subtilis [5]: 4 µg/mL (≈ 2.75 µM)

C=C1NC(=O)[C@H]([C@@H](C)CC)NC(=O)[C@H](NC(=O)C(=CC)NC(=O)[C@@H](N)[C@@H](C)CC)CSC[C@@H](C(=O)N[C@H]2C(=O)N3CCC[C@H]3C(=O)NCC(=O)N[C@H](C(=O)N[C@@H](CCCCN)C(=O)NCCCCCCCCCCCC)CS[C@H]2C)NC(=O)[C@H](CC(C)C)NC1=O [(8)]
MIC values VRE 155 [1]: 2 µg/mL (≈ 1.52 µM) | MIC values MRSA USA300 [2]: 4 µg/mL (≈ 3.04 µM) | MIC values S. aureus [3]: 4 to 8 µg/mL | MIC values E. coli [4]: >64 µg/mL | MIC values B. subtilis [5]: 4 µg/mL (≈ 3.04 µM)

C=C1NC(=O)[C@H]([C@@H](C)CC)NC(=O)[C@H](NC(=O)C(=CC)NC(=O)[C@@H](N)[C@@H](C)CC)CSC[C@@H](C(=O)N[C@H]2C(=O)N3CCC[C@H]3C(=O)NCC(=O)N[C@H](C(=O)N[C@@H](CCCCN)C(=O)NCCC[N+](C)(C)CCCCCCCCCC)CS[C@H]2C)NC(=O)[C@H](CC(C)C)NC1=O [(14)]
MIC values VRE 155 [1]: 4 µg/mL | MIC values MRSA USA300 [2]: 8 µg/mL | MIC values S. aureus [3]: 4 µg/mL | MIC values E. coli [4]: >64 µg/mL | MIC values B. subtilis [5]: 4 µg/mL

C=C1NC(=O)[C@H]([C@@H](C)CC)NC(=O)[C@H](NC(=O)C(=CC)NC(=O)[C@@H](N)[C@@H](C)CC)CSC[C@@H](C(=O)N[C@H]2C(=O)N3CCC[C@H]3C(=O)NCC(=O)N[C@H](C(=O)N[C@@H](CCCCN)C(=O)N[C@@H](Cc3c[nH]c4ccccc34)C(=O)NCCCCCCCCCC)CS[C@H]2C)NC(=O)[C@H](CC(C)C)NC1=O [(15)]
MIC values VRE 155 [1]: 2 µg/mL (≈ 1.36 µM) | MIC values MRSA USA300 [2]: 8 µg/mL (≈ 5.42 µM) | MIC values S. aureus [3]: 8 µg/mL (≈ 5.42 µM) | MIC values E. coli [4]: >64 µg/mL | MIC values B. subtilis [5]: 4 µg/mL (≈ 2.71 µM)

C=C1NC(=O)[C@H]([C@@H](C)CC)NC(=O)[C@H](NC(=O)C(=CC)NC(=O)[C@@H](N)[C@@H](C)CC)CSC[C@@H](C(=O)N[C@H]2C(=O)N3CCC[C@H]3C(=O)NCC(=O)N[C@H](C(=O)N[C@@H](CCCCN)C(=O)NCc3ccc(-c4ccc(Cl)cc4)cc3)CS[C@H]2C)NC(=O)[C@H](CC(C)C)NC1=O [(13)]
MIC values VRE 155 [1]: 4 µg/mL (≈ 2.96 µM) | MIC values MRSA USA300 [2]: 8 µg/mL (≈ 5.93 µM) | MIC values B. subtilis [5]: 2 to 4 µg/mL

C=C1NC(=O)[C@H]([C@@H](C)CC)NC(=O)[C@H](NC(=O)C(=CC)NC(=O)[C@@H](N)[C@@H](C)CC)CSC[C@@H](C(=O)N[C@H]2C(=O)N3CCC[C@H]3C(=O)NCC(=O)N[C@H](C(=O)N[C@@H](CCCCN)C(=O)NCCCCCCCC)CS[C@H]2C)NC(=O)[C@H](CC(C)C)NC1=O [(4)]
MIC values VRE 155 [1]: 16 µg/mL (≈ 12.7 µM) | MIC values MRSA USA300 [2]: 64 µg/mL (≈ 50.7 µM)

C=C1NC(=O)[C@H]([C@@H](C)CC)NC(=O)[C@H](NC(=O)C(=CC)NC(=O)[C@@H](N)[C@@H](C)CC)CSC[C@@H](C(=O)N[C@H]2C(=O)N3CCC[C@H]3C(=O)NCC(=O)N[C@H](C(=O)N[C@@H](CCCCNC(=O)CCN)C(=O)NCCCCCCCCCCCC)CS[C@H]2C)NC(=O)[C@H](CC(C)C)NC1=O [(21)]
MIC values VRE 155 [1]: 4 µg/mL (≈ 2.88 µM) | MIC values MRSA USA300 [2]: 8 µg/mL (≈ 5.76 µM)

C=C1NC(=O)[C@H]([C@@H](C)CC)NC(=O)[C@H](NC(=O)C(=CC)NC(=O)[C@@H](N)[C@@H](C)CC)CSC[C@@H](C(=O)N[C@H]2C(=O)N3CCC[C@H]3C(=O)NCC(=O)N[C@H](C(=O)N[C@@H](CCCCN)C(=O)N[C@@H](Cc3ccccc3)C(=O)NCCCCCCCCCC)CS[C@H]2C)NC(=O)[C@H](CC(C)C)NC1=O [(16)]
MIC values VRE 155 [1]: 2 µg/mL (≈ 1.39 µM) | MIC values MRSA USA300 [2]: 8 µg/mL (≈ 5.57 µM) | MIC values S. aureus [3]: 8 µg/mL (≈ 5.57 µM) | MIC values E. coli [4]: >64 µg/mL | MIC values B. subtilis [5]: 4 µg/mL (≈ 2.78 µM)

C=C1NC(=O)[C@H]([C@@H](C)CC)NC(=O)[C@H](NC(=O)C(=CC)NC(=O)[C@@H](N)[C@@H](C)CC)CSC[C@@H](C(=O)N[C@H]2C(=O)N3CCC[C@H]3C(=O)NCC(=O)N[C@H](C(=O)N[C@@H](CCCCN)C(=O)NCCCCCCCCCCCCC)CS[C@H]2C)NC(=O)[C@H](CC(C)C)NC1=O [(9)]
MIC values VRE 155 [1]: 2 µg/mL (≈ 1.5 µM) | MIC values MRSA USA300 [2]: 4 µg/mL (≈ 3 µM) | MIC values S. aureus [3]: 8 µg/mL (≈ 6.01 µM) | MIC values E. coli [4]: >64 µg/mL | MIC values B. subtilis [5]: 4 µg/mL (≈ 3 µM)

C=C1NC(=O)[C@H]([C@@H](C)CC)NC(=O)[C@H](NC(=O)C(=CC)NC(=O)[C@@H](N)[C@@H](C)CC)CSC[C@@H](C(=O)N[C@H]2C(=O)N3CCC[C@H]3C(=O)NCC(=O)N[C@H](C(=O)N[C@@H](CCCCN)C(=O)NCCCCCCCCC)CS[C@H]2C)NC(=O)[C@H](CC(C)C)NC1=O [(5)]
MIC values VRE 155 [1]: 8 to 16 µg/mL | MIC values MRSA USA300 [2]: 32 µg/mL (≈ 25.1 µM) | MIC values S. aureus [3]: 16 µg/mL (≈ 12.5 µM) | MIC values E. coli [4]: 64 µg/mL (≈ 50.2 µM) | MIC values B. subtilis [5]: 8 µg/mL (≈ 6.27 µM)

C=C1NC(=O)[C@H]([C@@H](C)CC)NC(=O)[C@H](NC(=O)C(=CC)NC(=O)[C@@H](N)[C@@H](C)CC)CSC[C@@H](C(=O)N[C@H]2C(=O)N3CCC[C@H]3C(=O)NCC(=O)N[C@H](C(=O)N[C@@H](CCCCN)C(=O)NCCCCCCC)CS[C@H]2C)NC(=O)[C@H](CC(C)C)NC1=O [(3)]
MIC values VRE 155 [1]: 8 µg/mL (≈ 6.41 µM) | MIC values MRSA USA300 [2]: 64 µg/mL (≈ 51.3 µM) | MIC values S. aureus [3]: 64 µg/mL (≈ 51.3 µM) | MIC values E. coli [4]: >64 µg/mL | MIC values B. subtilis [5]: 16 µg/mL (≈ 12.8 µM)

C=C1NC(=O)[C@H]([C@@H](C)CC)NC(=O)[C@H](NC(=O)C(=CC)NC(=O)[C@@H](N)[C@@H](C)CC)CSC[C@@H](C(=O)N[C@H]2C(=O)N3CCC[C@H]3C(=O)NCC(=O)N[C@H](C(=O)N[C@@H](CCCCN)C(=O)N[C@@H](Cc3c[nH]cn3)C(=O)NCCCCCCCCCC)CS[C@H]2C)NC(=O)[C@H](CC(C)C)NC1=O [(17)]
MIC values VRE 155 [1]: 4 µg/mL (≈ 2.8 µM) | MIC values MRSA USA300 [2]: 8 µg/mL (≈ 5.61 µM)

C=C1NC(=O)[C@H]([C@@H](C)CC)NC(=O)[C@H](NC(=O)C(=CC)NC(=O)[C@@H](N)[C@@H](C)CC)CSC[C@@H](C(=O)N[C@H]2C(=O)N3CCC[C@H]3C(=O)NCC(=O)N[C@H](C(=O)N[C@@H](CCCCN)C(=O)NC)CS[C@H]2C)NC(=O)[C@H](CC(C)C)NC1=O [D, reference compound]
MIC values S. aureus [3]: >128 µg/mL | MIC values E. coli [4]: >128 µg/mL | MIC values B. subtilis [5]: >128 µg/mL

C=C1NC(=O)[C@H]([C@@H](C)CC)NC(=O)[C@H](NC(=O)C(=CC)NC(=O)[C@@H](N)[C@@H](C)CC)CSC[C@@H](C(=O)N[C@H]2C(=O)N3CCC[C@H]3C(=O)NCC(=O)N[C@H](C(=O)N[C@@H](CCCCNC(=O)CCCCCCCC)C(=O)NC)CS[C@H]2C)NC(=O)[C@H](CC(C)C)NC1=O [(19)]
MIC values VRE 155 [1]: 8 µg/mL (≈ 6.14 µM) | MIC values MRSA USA300 [2]: 32 µg/mL (≈ 24.5 µM)

C=C1NC(=O)[C@H]([C@@H](C)CC)NC(=O)[C@H](NC(=O)C(=CC)NC(=O)[C@@H](NC(=O)CCN)[C@@H](C)CC)CSC[C@@H](C(=O)N[C@H]2C(=O)N3CCC[C@H]3C(=O)NCC(=O)N[C@H](C(=O)N[C@@H](CCCCNC(=O)CCN)C(=O)NCCCCCCCCCCCC)CS[C@H]2C)NC(=O)[C@H](CC(C)C)NC1=O [(22)]
MIC values VRE 155 [1]: 8 µg/mL (≈ 5.48 µM) | MIC values MRSA USA300 [2]: 16 µg/mL (≈ 11 µM)

C=C1NC(=O)[C@H]([C@@H](C)CC)NC(=O)[C@H](NC(=O)C(=CC)NC(=O)[C@@H](N)[C@@H](C)CC)CSC[C@@H](C(=O)N[C@H]2C(=O)N3CCC[C@H]3C(=O)NCC(=O)N[C@H](C(=O)N[C@@H](CCCCN)C(=O)NCCCN=[N+]=[N-])CS[C@H]2C)NC(=O)[C@H](CC(C)C)NC1=O [E, Nisin [1-12]-azide, reference compound]
MIC values S. aureus [3]: >128 µg/mL | MIC values E. coli [4]: >128 µg/mL | MIC values B. subtilis [5]: >128 µg/mL

C=C1NC(=O)[C@H]([C@@H](C)CC)NC(=O)[C@H](NC(=O)C(=CC)NC(=O)[C@@H](N)[C@@H](C)CC)CSC[C@@H](C(=O)N[C@H]2C(=O)N3CCC[C@H]3C(=O)NCC(=O)N[C@H](C(=O)N[C@@H](CCCCN)C(=O)NCCCCCCCCCCCCCCC)CS[C@H]2C)NC(=O)[C@H](CC(C)C)NC1=O [(11)]
MIC values VRE 155 [1]: 8 µg/mL (≈ 5.88 µM) | MIC values MRSA USA300 [2]: 64 µg/mL (≈ 47.1 µM) | MIC values S. aureus [3]: 32 µg/mL (≈ 23.5 µM) | MIC values E. coli [4]: >64 µg/mL | MIC values B. subtilis [5]: 8 µg/mL (≈ 5.88 µM)
